The text below walks through data of US12016864B2, “LOX enzyme inhibiting methods and compositions” (ANOVIA BIOSCIENCES, INC., priority 2021, dated 2024).

For the assay, the target named is T1, Recombinant human LOXL2 (lysyl oxidase like 2) (Homo sapiens, UniProt Q9Y4K0).
T1 construct: purchased R&D systems
T1 sequence (Q9Y4K0 26-774): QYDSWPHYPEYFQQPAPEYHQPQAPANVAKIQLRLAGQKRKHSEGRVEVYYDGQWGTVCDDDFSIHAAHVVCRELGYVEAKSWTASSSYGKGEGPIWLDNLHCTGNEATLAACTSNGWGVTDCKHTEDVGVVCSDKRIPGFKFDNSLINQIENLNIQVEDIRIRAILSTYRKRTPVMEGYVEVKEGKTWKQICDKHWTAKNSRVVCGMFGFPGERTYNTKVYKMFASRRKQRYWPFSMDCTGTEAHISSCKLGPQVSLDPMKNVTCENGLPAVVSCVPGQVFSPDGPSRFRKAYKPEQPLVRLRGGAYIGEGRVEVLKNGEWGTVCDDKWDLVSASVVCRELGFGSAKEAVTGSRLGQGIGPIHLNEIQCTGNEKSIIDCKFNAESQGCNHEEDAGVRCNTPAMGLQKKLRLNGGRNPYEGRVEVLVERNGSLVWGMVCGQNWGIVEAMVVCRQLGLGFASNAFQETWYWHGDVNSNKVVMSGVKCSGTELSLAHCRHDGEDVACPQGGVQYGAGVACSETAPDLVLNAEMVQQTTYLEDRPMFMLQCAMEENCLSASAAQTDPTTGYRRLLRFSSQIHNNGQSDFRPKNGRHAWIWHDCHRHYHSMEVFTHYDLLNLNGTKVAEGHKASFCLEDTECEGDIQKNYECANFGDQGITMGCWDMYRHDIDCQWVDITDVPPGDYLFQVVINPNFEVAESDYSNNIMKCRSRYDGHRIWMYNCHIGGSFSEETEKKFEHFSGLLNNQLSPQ
Put plainly: LOXL2 inhibition assay, fluorometric (cadaverine / HRP / Amplex Red). It counts as biochemical. To be noted: recombinant human LOXL2 130 nM; 30 min preincubation at 37° C.; 2.5 mM cadaverine; read-out: Activity Range LOXL2. The procedure:
The ability of compounds to inhibit one or more of the lysyl oxidases LOXL2 and/or LOXL3 was determined using a fluorometric assay. This assay measures the activity of lysyl oxidases by coupling the reaction with horseradish peroxidase-catalyzed […]. The activity assay protocol uses cadaverine as substrate that releases hydrogen peroxide upon transformation by the specific LOX family enzyme present in the sample. Hydrogen peroxide is in turn detected using a red fluorescence substrate for HRP-coupled reactions (Amplex Red Enzyme Assays, Thermo Scientific Fisher). This leads to increase in fluorescence that can be easily detected at Ex/Em=540/590 nm in a fluorescence microplate reader.
Recombinant human LOXL2 (lysyl oxidase like 2) and recombinant human LOXL3 (lysyl oxidase like 3) were purchased from R&D systems and assays were performed in 1.2 M urea, 50 mM sodium borate buffer pH 8.0, and 10 mM CaCl.
5 μl of freshly prepared reaction buffer were delivered to reaction wells. Compounds were resuspended in 100% DMSO at 10 mM and delivered into buffer using acoustic technology (Echo550; nanoliter range). A 3× solution of LOXL2 or LOXL3 in reaction buffer was prepared (“enzyme solution”) and 5 μL of enzyme solution was added into the reaction wells. Buffer only was added to column 1 for no protein control. Reactions were incubated for 30 minutes at 37° C. A 3× mixture of cadaverine, Amplex Red, and HRP (“Substrate/Detection Mix) was prepared and subsequently 5 μL of the mixture added to each reaction well. Progress of reactions was monitored for 60 minutes at 37° C. using Clariostar plate reader (ex 530-12, ems 600-40). For all activity assays, pan-LOX inhibitor CCT365623 (Tang et al, 2017) and LOXL2/LOXL3 inhibitor PAT-1251 (PharmaKea) were included as standards.
For the data analysis, the slope of the linear portion of the progress curve was calculated using Clariostar software. Typical analysis interval was between 8-30 min, but varied between experiments. The background-subtracted signals (No protein wells are considered as background) were converted to % activity relative to DMSO controls. Data was analyzed using GraphPad Prism 4 with “sigmoidal dose-response (variable slope)”; 4 parameters with Hill Slope. Constraints: Bottom=Constant equal to 0. Top=Must be less than 120.
`NCc1ccnc(S(=O)(=O)C[C@H]2C[C@H](C3CCCCC3)CN(S(=O)(=O)N3CCS(=O)(=O)CC3)C2)c1` (relative stereo) [Example 234T, trans-4-((3-(((4-(Aminomethyl)pyridin-2-yl)sulfonyl)methyl)-5-cyclohexylpiperidin-1-yl)sulfonyl)thiomorpholine 1,1-dioxide 2,2,2-trifluoroacetate]: the IC50 is no more than 500 nM. In the case of `NCc1cccc(OC[C@@H]2C[C@H](c3ccccc3F)CN2S(=O)(=O)N2CCOCC2)c1` (racemic) [Example 215, cis-(3-((4-(2-Fluorophenyl)-1-(morpholinosulfonyl)pyrrolidin-2-yl)methoxy)phenyl)methanamine] it was 500 to 1000 nM; in that of `NCc1ccnc(S(=O)(=O)C[C@H]2C[C@H](c3ccccc3)CN(S(=O)(=O)N3CCOCC3)C2)c1` (racemic) [Example 219T, trans-(2-(((1-(Morpholinosulfonyl)-5-phenylpiperidin-3-yl)methyl)sulfonyl)pyridin-4-yl)methanamine 2,2,2-trifluoroacetate], no more than 500 nM. The same measure for `NCc1ccnc(OC[C@@H]2CC(C3CCCCC3)CN2S(=O)(=O)N2CCOCC2)c1` (mixture of isomers) [Example 239RAC, (2-(((2S)-4-Cyclohexyl-1-(morpholinosulfonyl)pyrrolidin-2-yl)methoxy)pyridin-4-yl)methanamine 2,2,2-trifluoroacetate]: no more than 500 nM. Regarding `CS(=O)(=O)N1C[C@@H](c2ccccc2)C[C@H]1CS(=O)(=O)c1ccc(CN)s1` (racemic) [Example 223, cis-(5-(((1-(Methylsulfonyl)-4-phenylpyrrolidin-2-yl)methyl)sulfonyl)thiophen-2-yl)methanamine 2,2,2-trifluoroacetate], the IC50 is no more than 500 nM. For `NCc1ccnc(OC[C@H]2C[C@H](C3CCCCC3)CN(S(=O)(=O)N3CCOCC3)C2)c1` [Example 231T, trans-(2-(((3S,5R)-5-cyclohexyl-1-(morpholinosulfonyl)piperidin-3-yl)methoxy)pyridin-4-yl)methanamine], the IC50 was no more than 500 nM.

For the molecule `NCc1ccnc(S(=O)(=O)C[C@@H]2C[C@H](c3ccccc3F)CN2S(=O)(=O)N2CCS(=O)(=O)CC2)c1` (racemic) [Example 205, cis-4-((2-(((4-(Aminomethyl)pyridin-2-yl)sulfonyl)methyl)-4-(2-fluorophenyl)pyrrolidin-1-yl)sulfonyl)thiomorpholine 1,1-dioxide 2,2,2-trifluoroacetate], the IC50 is no more than 500 nM. In the case of `NCc1cccc(OC[C@@H]2C[C@H](c3ccccc3F)CN2S(=O)(=O)N2CCS(=O)(=O)CC2)c1` (racemic) [Example 217, cis-4-((2-((3-(Aminomethyl)phenoxy)methyl)-4-(2-fluorophenyl)pyrrolidin-1-yl)sulfonyl)thiomorpholine 1,1-dioxide 2,2,2-trifluoroacetate] it was 500 to 1000 nM. On to `CS(=O)(=O)N1C[C@@H](c2ccccc2)C[C@@H]1CS(=O)(=O)c1ccc(CN)s1` (racemic) [Example 223T, trans-(5-(((1-(Methylsulfonyl)-4-phenylpyrrolidin-2-yl)methyl)sulfonyl)thiophen-2-yl)methanamine 2,2,2-trifluoroacetate], for which the IC50 was no more than 500 nM. Consider `NCc1ccnc(S(=O)(=O)C[C@@H]2C[C@H](C3CCCCC3)CN(S(=O)(=O)N3CCS(=O)(=O)CC3)C2)c1` (relative stereo) [Example 234, cis-4-((3-(((4-(Aminomethyl)pyridin-2-yl)sulfonyl)methyl)-5-cyclohexylpiperidin-1-yl)sulfonyl)thiomorpholine 1,1-dioxide 2,2,2-trifluoroacetate], for which the IC50 was no more than 500 nM. In the case of `NCc1ccnc(OC[C@H]2C[C@H](C3CCCCC3)CN(S(=O)(=O)N3CCS(=O)(=O)CC3)C2)c1` (racemic) [Example 235T, trans-4-((3-(((4-(Aminomethyl)pyridin-2-yl)oxy)methyl)-5-cyclohexylpiperidin-1-yl)sulfonyl)thiomorpholine 1,1-dioxide 2,2,2-trifluoroacetate] it was no more than 500 nM. The same measure for `NCc1ccnc(OC[C@@H]2C[C@H](c3ccccc3F)CN2S(=O)(=O)N2CCS(=O)(=O)CC2)c1` (racemic) [Example 213, cis-4-((2-(((4-(Aminomethyl)pyridin-2-yl)oxy)methyl)-4-(2-fluorophenyl)pyrrolidin-1-yl)sulfonyl)thiomorpholine 1,1-dioxide 2,2,2-trifluoroacetate]: no more than 500 nM. Take `NCc1ccnc(OC[C@@H]2C[C@H](c3ccccc3)CN(S(=O)(=O)N3CCOCC3)C2)c1` (racemic) [Example 220, cis-(2-((1-(Morpholinosulfonyl)-5-phenylpiperidin-3-yl)methoxy)pyridin-4-yl)methanamine 2,2,2-trifluoroacetate]: the IC50 is no more than 500 nM.
